Tests used:
PRMT5/MEP50 complex [1] = target: T1, PRMT5/MEP50 complex (Homo sapiens (Human), UniProt O14744); experiment: PRMT5:MEP50 FlashPlate Assay (histone H4 peptide substrate, plus and minus MTA); type: biochemical
Method: (§1) The PRMT5 inhibitory activity of compounds of the present invention was determined using either a PRMT5:MEP50 FlashPlate Assay (Reaction Biology Corporation) or a PRMT5:MEP50 HotSpot Assay (Reaction Biology Corporation).
1. PRMT5:MEP50 FlashPlate Assay

PRMT5/MEP50 complex [2] = target: T1, PRMT5/MEP50 complex; experiment: PRMT5:MEP50 HotSpot Assay (full-length histone H2A substrate, plus and minus MTA); type: biochemical
Method: as §1
The assay uses recombinant full-length histone H2A as the PRMT5 substrate. […] The reaction was stopped and transferred to filter paper for detection. The amount of tritiated H2A in each sample was determined using a scintillation counter.

[3] = IC50 + 2 μM MTA (nM), in the presence of 2 μM MTA
[4] = in the absence of MTA, read-out: IC50
[5] = IC50 + 2 μM MTA, in the presence of 2 μM MTA

T1 sequence (O14744 2-637): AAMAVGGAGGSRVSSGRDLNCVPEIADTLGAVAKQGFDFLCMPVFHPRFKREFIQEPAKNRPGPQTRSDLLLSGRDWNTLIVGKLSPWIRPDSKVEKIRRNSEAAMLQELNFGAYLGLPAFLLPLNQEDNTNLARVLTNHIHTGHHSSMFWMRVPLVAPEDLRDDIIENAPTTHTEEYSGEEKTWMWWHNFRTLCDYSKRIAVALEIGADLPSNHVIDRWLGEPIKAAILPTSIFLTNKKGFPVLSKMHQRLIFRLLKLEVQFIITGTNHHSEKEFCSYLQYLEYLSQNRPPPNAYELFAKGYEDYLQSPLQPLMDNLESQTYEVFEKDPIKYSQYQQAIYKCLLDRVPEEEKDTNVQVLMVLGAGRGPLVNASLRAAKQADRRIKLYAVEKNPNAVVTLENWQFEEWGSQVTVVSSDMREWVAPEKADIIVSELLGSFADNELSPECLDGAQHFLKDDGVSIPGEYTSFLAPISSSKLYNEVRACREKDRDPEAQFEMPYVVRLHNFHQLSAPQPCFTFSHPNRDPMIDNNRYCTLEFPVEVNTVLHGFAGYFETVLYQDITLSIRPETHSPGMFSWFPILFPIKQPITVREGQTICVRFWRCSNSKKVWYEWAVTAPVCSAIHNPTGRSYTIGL
T1 sequence (Q9BQA1 2-342 partner): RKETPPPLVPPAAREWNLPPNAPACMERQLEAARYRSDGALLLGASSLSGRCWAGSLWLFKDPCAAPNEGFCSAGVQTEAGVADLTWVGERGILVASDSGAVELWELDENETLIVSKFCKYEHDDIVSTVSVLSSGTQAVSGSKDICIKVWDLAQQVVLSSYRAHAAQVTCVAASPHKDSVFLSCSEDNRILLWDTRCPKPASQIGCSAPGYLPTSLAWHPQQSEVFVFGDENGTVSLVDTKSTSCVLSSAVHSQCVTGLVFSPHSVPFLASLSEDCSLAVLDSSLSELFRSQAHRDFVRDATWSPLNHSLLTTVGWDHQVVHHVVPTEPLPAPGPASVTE

IC50 (PRMT5/MEP50 complex [1]; [3]) [nM] | IC50 (PRMT5/MEP50 complex [1]; [4]) [nM] | IC50 (PRMT5/MEP50 complex [2]; [5]) [nM] | IC50 (PRMT5/MEP50 complex [2]; [4]) [nM] | Compound
6 | 193 | 9690 | – | N#Cc1ccccc1-c1cncc(-c2ccc3c(=O)[nH]nc(CN)c3c2)c1 [Example 3-40, 2-(5-(4-(aminomethyl)-1-oxo-1,2-dihydrophthalazin-6-yl)pyridin-3-yl)benzonitrile]
10 | 277 | 3780 | > 10000 | NCc1n[nH]c(=O)c2ccc(-c3cncc(Oc4ccccc4)c3)cc12 [Example 3-50, 4-(aminomethyl)-6-(5-phenoxypyridin-3-yl)phthalazin-1(2H)-one]
7.7 | 399 | 1140 | > 10000 | NCc1n[nH]c(=O)c2ccc(-c3cnc4[nH]ccc4c3)cc12 [Example 3-59, 4-(aminomethyl)-6-(1H-pyrrolo[2,3-b]pyridin-5-yl)phthalazin-1(2H)-one]
9.4 | 602 | 8850 | – | COc1ccc2ncc(-c3ccc4c(=O)[nH]nc(CN)c4c3)n2c1 [Example 4-16, 4-(aminomethyl)-6-(6-methoxyimidazo[1,2-a]pyridin-3-yl)phthalazin-1(2H)-one]
1.6 | 45 | 2040 | > 10000 | Cn1ncc(-c2ccc3c(=O)[nH]nc(CN)c3c2)c1-c1ccccc1 [Example 4-32, 4-(aminomethyl)-6-(1-methyl-5-phenyl-1H-pyrazol-4-yl)phthalazin-1(2H)-one]
13 | 541 | 2800 | – | CCOc1ccc2ncc(-c3ccc4c(=O)[nH]nc(CN)c4c3)n2c1 [Example 4-36, 4-(aminomethyl)-6-(6-ethoxyimidazo[1,2-a]pyridin-3-yl)phthalazin-1(2H)-one]
10 | 276 | 3170 | – | Cc1c[nH]c2ncc(-c3ccc4c(=O)[nH]nc(CN)c4c3)cc12 [Example 4-40, 4-(aminomethyl)-6-(3-methyl-1H-pyrrolo[2,3-b]pyridin-5-yl)phthalazin-1(2H)-one]
5.4 | 691 | 6830 | > 10000 | NCc1n[nH]c(=O)c2ccc(-c3cnc4[nH]cc(Cl)c4c3)cc12 [Example 4-44, 4-(aminomethyl)-6-(3-chloro-1H-pyrrolo[2,3-b]pyridin-5-yl)phthalazin-1(2H)-one]
16 | 291 | 2790 | – | CCc1c[nH]c2ncc(-c3ccc4c(=O)[nH]nc(CN)c4c3)cc12 [Example 4-45, 4-(aminomethyl)-6-(3-ethyl-1H-pyrrolo[2,3-b]pyridin-5-yl)phthalazin-1(2H)-one]
5.8 | 530 | 1510 | > 10000 | NCc1n[nH]c(=O)c2ccc(-c3cncc(C(O)c4ccccc4)c3)cc12 (stereo not drawn) [Example 4-51, 4-(aminomethyl)-6-(5-(hydroxy(phenyl)methyl)pyridin-3-yl)phthalazin-1(2H)-one]
4.9 | 116 | 1050 | > 10000 | NCc1n[nH]c(=O)c2ccc(-c3cncc(Oc4ccccc4Cl)c3)cc12 [Example 4-71, 4-(aminomethyl)-6-(5-(2-chlorophenoxy)pyridin-3-yl)phthalazin-1(2H)-one]
0.6 | 24 | 933 | – | Cc1ccc(Oc2cncc(-c3ccc4c(=O)[nH]nc(CN)c4c3)c2)c(C)c1 [Example 4-73, 4-(aminomethyl)-6-(5-(2,4-dimethylphenoxy)pyridin-3-yl)phthalazin-1(2H)-one]
14 | 344 | 2710 | – | NCc1n[nH]c(=O)c2ccc(-c3cnn4c3CN(c3ccccc3)CC4)cc12 [Example 4-83, 4-(aminomethyl)-6-(5-phenyl-4,5,6,7-tetrahydropyrazolo[1,5-a]pyrazin-3-yl)phthalazin-1(2H)-one]
3.3 | 85 | 845 | – | COc1cccc(-c2c(-c3ccc4c(=O)[nH]nc(CN)c4c3)cnn2C)c1 [Example 4-93, 4-(aminomethyl)-6-(5-(3-methoxyphenyl)-1-methyl-1H-pyrazol-4-yl)phthalazin-1(2H)-one]
3.9 | 116 | 868 | > 10000 | Cn1ncc(-c2ccc3c(=O)[nH]nc(CN)c3c2)c1-c1ccc(Cl)cc1 [Example 4-96, 4-(aminomethyl)-6-(5-(4-chlorophenyl)-1-methyl-1H-pyrazol-4-yl)phthalazin-1(2H)-one]
2.1 | 90 | 635 | – | COc1ccc(-c2c(-c3ccc4c(=O)[nH]nc(CN)c4c3)cnn2C)cc1 [Example 4-98, 4-(aminomethyl)-6-(5-(4-methoxyphenyl)-1-methyl-1H-pyrazol-4-yl)phthalazin-1(2H)-one]
– | – | 1600 | – | CCOc1ccc(-c2c(-c3ccc4c(=O)[nH]nc(CN)c4c3)cnn2C)c(C#N)c1 [Example 4-173, 2-(4-(4-(aminomethyl)-1-oxo-1,2-dihydrophthalazin-6-yl)-1-methyl-1H-pyrazol-5-yl)-5-ethoxybenzonitrile]
– | – | > 10000 | – | Cn1ncc(-c2ccc3c(=O)[nH]nc(CN)c3c2)c1OCc1c(Cl)cccc1C#N [Example 4-174, 2-(((4-(4-(aminomethyl)-1-oxo-1,2-dihydrophthalazin-6-yl)-1-methyl-1H-pyrazol-5-yl)oxy)methyl)-3-chlorobenzonitrile]
– | – | 1120 | – | Cn1ncc(-c2ccc3c(=O)[nH]nc(CN)c3c2)c1-c1cccc(OC2CC2)c1C#N [Example 4-175, 2-(4-(4-(aminomethyl)-1-oxo-1,2-dihydrophthalazin-6-yl)-1-methyl-1H-pyrazol-5-yl)-6-cyclopropoxybenzonitrile]
– | – | 8710 | – | CC(C)Oc1cccc(-c2c(-c3ccc4c(=O)[nH]nc(CN)c4c3)cnn2C)c1C#N [Example 4-176, 2-(4-(4-(aminomethyl)-1-oxo-1,2-dihydrophthalazin-6-yl)-1-methyl-1H-pyrazol-5-yl)-6-isopropoxybenzonitrile]
– | – | 4880 | – | CCCOc1cccc(-c2c(-c3ccc4c(=O)[nH]nc(CN)c4c3)cnn2C)c1C#N [Example 4-178, 2-(4-(4-(aminomethyl)-1-oxo-1,2-dihydrophthalazin-6-yl)-1-methyl-1H-pyrazol-5-yl)-6-propoxybenzonitrile]
– | – | 1240 | – | COc1ccc(-c2c(-c3ccc4c(=O)[nH]nc(CN)c4c3)cnn2C)c(C#N)c1C [Example 4-179, 6-(4-(4-(aminomethyl)-1-oxo-1,2-dihydrophthalazin-6-yl)-1-methyl-1H-pyrazol-5-yl)-3-methoxy-2-methylbenzonitrile]
– | – | > 10000 | – | N#Cc1ccccc1-c1c(-c2ccc3c(=O)[nH]nc(CN)c3c2)cnn1CCO [Example 4-193, 2-(4-(4-(aminomethyl)-1-oxo-1,2-dihydrophthalazin-6-yl)-1-(2-hydroxyethyl)-1H-pyrazol-5-yl)benzonitrile]
– | – | > 10000 | – | NCc1n[nH]c(=O)c2ccc(-c3cncc(C4CCCOC4)c3)cc12 (stereo not drawn) [Example 4-195, 4-(aminomethyl)-6-(5-(tetrahydro-2H-pyran-3-yl)pyridin-3-yl)phthalazin-1(2H)-one]
– | – | > 10000 | – | N#Cc1ccc(C#N)c(-c2cncc(-c3ccc4c(=O)[nH]nc(CN)c4c3)c2)c1 [Example 8-9, 2-(5-(4-(aminomethyl)-1-oxo-1,2-dihydrophthalazin-6-yl)pyridin-3-yl)terephthalonitrile]
– | – | > 10000 | – | NCc1n[nH]c(=O)c2ccc(-c3cncc(C4CCCCC4)c3)cc12 [Example 14-1, 4-(aminomethyl)-6-(5-cyclohexyl-3-pyridyl)-2H-phthalazin-1-one]

Compound | IC50 (PRMT5/MEP50 complex [1]; [3]) [nM] | IC50 (PRMT5/MEP50 complex [1]; [4]) [nM] | IC50 (PRMT5/MEP50 complex [2]; [5]) [nM] | IC50 (PRMT5/MEP50 complex [2]; [4]) [nM]
Cn1ncc(-c2ccc3c(=O)[nH]nc(CN)c3c2)c1-c1cccc(OC2CCC2)c1C#N [Example 4-177, 2-(4-(4-(aminomethyl)-1-oxo-1,2-dihydrophthalazin-6-yl)-1-methyl-1H-pyrazol-5-yl)-6-cyclobutoxybenzonitrile] | – | – | 5970 | –
